Experimental data taken from PMC11241267, “Prokaryotic Expression and Functional Verification of Antimicrobial Peptide LRGG” (International Journal of Molecular Sciences, 2024).
Where no end group is shown, it is not given here.

Experiments:
[1] = system: AB-strain zebrafish embryos; test: Embryotoxicity in zebrafish; assay type: in vivo; details: embryos at 28 °C for approximately 2–3 days, light microscope; for zebrafish morphology (embryotoxicity): 1 × MIC
Description: A sodium dehydroacetate solution of 200 μg/mL served as the positive control, while the negative control group contained only culture medium. The embryos were cultured in a constant temperature incubator at 28 °C for approximately 2–3 days, and their morphology after fertilization was observed using a light microscope.

[2] = system: Eschericha coli ATCC25922; test: Temperature and pH stability (MIC after treatment); assay type: cell-based; design: MIC value, Control (pH 7) / MIC value after 0 °C / MIC value after 37 °C / MIC value after 100 °C / MIC value after pH 4 / MIC value after pH 6 / MIC value after pH 8 / MIC value after pH 10: unit not given beside the values; details: for MIC value after pH 4: peptide exposed for one hour to pH 4; for MIC value after pH 4 / MIC value after pH 6 / MIC value after pH 8 / MIC value after pH 10 / MIC value after 37 °C / MIC value after 100 °C / MIC value after 0 °C / MIC value, Control (pH 7): triplicate; for MIC value after pH 6: peptide exposed for one hour to pH 6; for MIC value after pH 8: peptide exposed for one hour to pH 8; for MIC value after pH 10: peptide exposed for one hour to pH 10; for MIC value after 37 °C: peptide heated to 37 °C for 30 min before MIC; for MIC value after 100 °C: peptide heated to 100 °C for 30 min before MIC; for MIC value after 0 °C: peptide in ice-cold water at 0 °C for 30 min before MIC; for MIC value, Control (pH 7): untreated peptide, Table 2 control; for increase of MIC value at 100 °C: versus untreated control
Description: (§1) The strains kept at −80 °C were reactivated, plated, and incubated overnight at 37 °C. Single colonies were picked, inoculated into 5 mL of MH medium, and cultured until they reached OD600 = 0.5. The bacterial suspensions were then diluted to 1 × 10^5 CFU/mL, and 50 μL was added to wells 1–11. Then, 50 μL and 100 μL of deionized water were added to wells […], respectively, to provide a positive and a negative control. The concentration of peptide present in the first non-turbid well in which bacterial growth was inhibited was taken as the minimal inhibitory concentration (MIC). This experiment was repeated three times.
The efficacy of the chemically synthesized and in vivo-expressed LRGG peptide were tested for their efficacy against Eschericha coli ATCC 25922 under various conditions, such as heat and different pH conditions, before determining their MIC in triplicate. In one case, the peptides were placed in ice-cold water at 0 °C and heated to 37 °C and 100 °C for 30 min each, and their efficacy was compared to that of an untreated control group. This process was repeated three times. […] In another set of experiments, the peptides were mixed and incubated with 1 mg/mL of four different proteases. After inactivation of the enzymes, the peptides were tested for their efficacy against Eschericha coli ATCC 25922. The peptides were also tested after mixing with various salt solutions and concentrations of fetal bovine serum at concentrations ranging from 5% to 50%. In all cases, the MIC were determined in triplicate using untreated antimicrobial peptides as controls.

[3] = system: Eschericha coli ATCC25922; test: Protease stability (MIC after protease treatment); assay type: cell-based; design: MIC value, Control: unit not given beside the values; details: triplicate; for MIC value after Papain: peptide incubated with 1 mg/mL papain; for MIC value after Papain / MIC value after Pepsin / MIC value after Protease K / MIC value after Trypsin: enzyme inactivated before MIC; for MIC value after Pepsin: peptide incubated with 1 mg/mL pepsin; for MIC value after Protease K: peptide incubated with 1 mg/mL protease K; for MIC value after Trypsin: peptide incubated with 1 mg/mL trypsin; for MIC value, Control: untreated peptide, Table 3 control
Description: as §1
(§2) The efficacy of the chemically synthesized and in vivo-expressed LRGG peptide were tested for their efficacy against Eschericha coli ATCC 25922 under various conditions, such as heat and different pH conditions, before determining their MIC in triplicate. In one case, the peptides were placed in ice-cold water at 0 °C and heated to 37 °C and 100 °C for 30 min each, and their efficacy was compared to that of an untreated control group. This process was repeated three times. In another case, the peptides were exposed for one hour to pH values of 4, 6, 8, and 10, and their activity was compared to that of an untreated control group. In another set of experiments, the peptides were mixed and incubated with 1 mg/mL of four different proteases. After inactivation of the enzymes, the peptides were tested for their efficacy against Eschericha coli ATCC 25922. The peptides were also tested after mixing with various salt solutions and concentrations of fetal bovine serum at concentrations ranging from 5% to 50%. In all cases, the MIC were determined in triplicate using untreated antimicrobial peptides as controls.

[4] = system: Eschericha coli ATCC25922; test: Salt ion stability (MIC in salt solutions); assay type: cell-based; design: unit not given here; details: triplicate; for MIC value with MgCl2: 1 mM MgCl2; for MIC value with CaCl2: 2.5 mM CaCl2; for MIC value with KCl: 4.5 mM KCl; for MIC value with NH4Cl: 6 mM NH4Cl; for MIC value with NaCl: 150 mM NaCl; for MIC value, Control: untreated peptide, Table 4 control
Description: as §1, §2

[5] = system: Eschericha coli ATCC25922; test: Serum stability (MIC at different serum concentrations); assay type: cell-based; details: triplicate; for MIC value in 5% serum: fetal bovine serum 5%; for MIC value in 10% serum: fetal bovine serum 10%; for MIC value in 20% serum: fetal bovine serum 20%; for MIC value in 40% serum: fetal bovine serum 40%; for MIC value in 50% serum: fetal bovine serum 50%; for MIC value, Control: untreated peptide, Table 5 control
Description: as §1, §2

sheep red blood cells = assay type: cell-based; details: red cells of sheep
Description: To obtain a suspension containing 2% red blood cells, 15 mL of sheep blood was collected in a tube containing 0.2% sodium heparin anticoagulant and centrifuged at 1000 rpm for 10 min. After discarding the supernatant, the red blood cell pellet was collected, washed twice with sterile phosphate buffered saline (PBS), and resuspended in PBS. […] After the erythrocyte suspension was incubated with the antimicrobial peptide LRGG for one hour at 37 °C, the mixture from each well of the 96-well plate was aspirated and centrifuged at 1000× g for 10 min. The absorbance of the supernatant was then measured at 570 nm, with three repeats and averaging. Finally, the hemolytic index was calculated as follows: Hemolytic index (%) = (O.D. peptide − O.D. PBS)/(O.D. TritonX − 100 − O.D. PBS) × 100%.

[6] = system: Eschericha coli ATCC25922; test: Plasma membrane potential (diSC3-5); assay type: cell-based; details: 1–8 MIC, 0–1500 s, diSC3-5 0.4 μM
Description: To determine whether the expressed antimicrobial peptide LRGG can break bacterial cytoplasmic membranes, diSC3-5 was used as a fluorescent dye to monitor changes in membrane potential. A bacterial suspension was prepared and adjusted to an ABS O.D. of 600 = 0.5. Next, the same volume of bacterial suspension and varying concentrations of expressed antimicrobial peptide LRGG (1–8 MIC) were added to black 96-well plates. A control group was established using PBS, and diSC3-5 dye was added to a final concentration of 0.4 μM and incubated at room temperature in the dark for one hour. Changes in […] between 0 and 1500 s were measured using a fluorescence microplate reader at excitation (622 nm) and emission (670 nm) wavelengths.

Molecule | MIC value after pH 4 [2] | MIC value after pH 6 [2] | MIC value after pH 8 [2] | MIC value after pH 10 [2] | MIC value after 37 °C [2] | MIC value after 100 °C [2] | MIC value after 0 °C [2] | MIC value, Control (pH 7) [2] | increase of MIC value at 100 °C [2] | MIC value after Papain [3] | MIC value after Pepsin [3] | MIC value after Protease K [3] | MIC value after Trypsin [3] | MIC value, Control [3] | MIC value with MgCl2 [4] | MIC value with CaCl2 [4] | MIC value with KCl [4] | MIC value with NH4Cl [4] | MIC value with NaCl [4] | MIC value, Control [4] | also measured
CC(=O)c1c([O-])cc(C)oc1=O.[Na+] [sodium dehydroacetate, reference compound] |  |  |  |  |  |  |  |  |  |  |  |  |  |  |  |  |  |  |  |  | zebrafish morphology (embryotoxicity), positive control ([1]; 200 μg/mL): significant hemorrhage and severe bending of the fish
GLLRLLRRGGRRLLRLL [Expressed LRGG] | 2 | 4 | 2 | 16 | 4 | 8 | 2 | 2 | four-fold | >64 | >128 | >64 | >128 | 4 | 8 | 4 | 8 | 4 | 8 | 4 | MIC value in 5% serum [5]: 2; MIC value in 10% serum [5]: 4; MIC value in 20% serum [5]: 32; MIC value in 40% serum [5]: 32; MIC value in 50% serum [5]: 32; MIC value, Control [5]: 2; hemolytic index (sheep red blood cells): less than 10%; zebrafish morphology (embryotoxicity) [1]: did not change the morphology of the zebrafish; diSC3-5 fluorescence value (cytoplasmic membrane potential) [6]: gradually increased
H-LLRLLRRGGRRLLRLL-NH2 [Chem. Syn. LRGG] | 2 | 2 | 4 | 4 | 2 | 8 | 2 | 2 | four-fold | >64 | >128 | >64 | >128 | 2 | 4 | 4 | 2 | 2 | 8 | 2 | MIC value in 5% serum [5]: 2; MIC value in 10% serum [5]: 2; MIC value in 20% serum [5]: 8; MIC value in 40% serum [5]: 16; MIC value in 50% serum [5]: 16; MIC value, Control [5]: 2; zebrafish morphology (embryotoxicity) [1]: did not change the morphology of the zebrafish
